Columns and labels:
U-251 = test: MTT cytotoxicity assay, U-251; format: cell-based; details: Homo sapiens, mean ± SEM of three independent experiments in triplicate, read-out: IC50 Brain Cancer U-251
Method: (§1) A panel of cancer cell lines, including breast (MDA-MB-231, BT20), brain (U251), and colon (HCT116), as well as a normal cell line (human mammary epithelial cells: HMECs), were grown as adherent monolayers in flasks with Dulbecco’s Modified Eagle Medium (DMEM), supplemented with 10% fetal bovine serum (FBS) and 1% penicillin and streptomycin in a humidified incubator with 5% CO2 at 37 °C.
(§2) The (3-(4,5-dimethylthiazol-2-yl)-2,5-diphenyltetrazolium bromide) (MTT) assay was used to determine the cytotoxicity of the 15 chrysin derivatives in the above-mentioned cell lines. Briefly, cells were harvested with 0.05% trypsin, 2.21 mM ethylenediaminetetraacetic acid (EDTA), 1× from Corning (Corning, NY, USA), and suspended at a final density of 5 × 10^3 cells/well. Cells were seeded (180 μL/well) into 96-well plates. Initially, four different concentrations of each compound were added to find the compounds with the greatest antiproliferative efficacy in the MDA-MB-231 cell line (0, 1, 10, and 100 μM). Subsequently, […] different concentrations […] of each compound were added to the remaining cell lines mentioned above. After 68 h of incubation, 20 μL of the MTT solution (4 mg/mL) were added to each well, and the plates were incubated for 4 h. This allowed viable cells to biotransform the yellow-colored MTT into dark-blue formazan crystals. Subsequently, the medium was discarded, and 150 μL of DMSO were added to each well to dissolve the formazan crystals. The absorbance was determined at 590 nm using a DTX 880 multimode detector (Beckman Coulter life sciences, IN, USA). The IC50 ± SD concentrations were calculated from three experiments performed in triplicate/duplicate. The IC50 values were calculated from the cell survival percentages obtained for each compound tested at different concentrations. Similarly, the cytotoxicity of the test compounds was compared to the normal cell line (HMEC).

[1] = test system: HMEC (human mammary epithelial cells); test: MTT cytotoxicity assay, normal cells HMEC; format: cell-based; details: mean ± SEM of three independent experiments in triplicate
Method: as §1, §2

MDA-MB-231 cells [2] = test: MTT cytotoxicity assay, MDA-MB-231; format: cell-based, human; details: Homo sapiens; MDA-MB-231, MTT, mean ± SD of two independent experiments in triplicate; read-out: IC50 (cell survival)
Method: The synthesized chrysin derivatives were evaluated for cytotoxic efficacy in the human breast cancer cell line, MDA-MB-231, using the 3-(4,5-dimethylthiazol-2yl)-2,5-diphenyltetrazolium bromide (MTT) colorimetric assay and doxorubicin was used as a reference anticancer drug.
as §1
as §2, with “The IC50 ± SD concentrations were calculated from three experiments performed in triplicate/duplicate.” left out

MDA-MB-231 cells [3] = test: Western blot of apoptotic proteins (Bak, cytochrome c, caspase-7, caspase-9, mTOR); format: cell-based, human; details: for cleavage of the initiator caspase, caspase 9 / expression of cytochrome c / caspase 7 activation: compared to vehicle; for mTOR expression: 5 or 10 µM; for expression of Bak: compared to cells incubated in the absence of lead compounds
Method: To measure the expression of Bak, cytochrome c, caspase-7, caspase-9, and mTOR, Western blotting was performed by lysing MDA-MB-231 cells using a lysis buffer (50 mM Tris–HCl, 150 mM NaCl, 1 mM EDTA, 0.5% NP-40, 1% Triton, 0.1% SDS) containing a protease inhibitor cocktail that consisted of Aprotinin, Bestatin, E-64, Leupeptin, and Pepstatin A (Sigma-Aldrich Life Science, St. Louis, MO, USA). The bicinchoninic acid (BCA) quantification assay was used to determine the protein levels in the cell extracts (G-BIOSCIENCES, St. Louis, MO, USA). The extracted proteins were loaded onto a 10–20% tris-glycine gel. After separation, the proteins were transferred from the gel onto a polyvinylidene difluoride (PVDF) membrane. The membranes were blocked using 5% milk in Tris-buffered saline Tween 20 for 30 min and incubated overnight with primary antibodies against Bak (1:1000), cytochrome C (1:1000), caspase-3 (1:1000), caspase 7 (1:1000), caspase 9 (1:1000), mTOR (1:1000), or B-actin (1:2000) in 5% BSA (bovine serum albumin) at 4 °C. The next day, membranes were washed and incubated with horseradish peroxidase-labelled (HRP) anti-rabbit secondary antibody (1:5000 dilutions). The membrane was incubated with the antibody for an additional 1 h. Subsequently, the membranes were washed and developed by Clarity Western ECL substrate (Bio-Rad; Hercules, CA, USA). Protein was detected using a ChemiDoc Imaging System (Bio-Rad). Densitometry analyses of the blots for the detected protein were quantified using the ImageJ software. Data was calculated as ratios of protein/β-actin.

SMILES	IC50 (U-251) [µM]	IC50 [1] [µM]	IC50 (MDA-MB-231 cells [2]) [µM]	cleavage of the initiator caspase, caspase 9 (MDA-MB-231 cells [3]; 5 µM)	expression of cytochrome c (MDA-MB-231 cells [3]; 5 µM)	mTOR expression (MDA-MB-231 cells [3])	caspase 7 activation (MDA-MB-231 cells [3]; both concentrations (5 and 10 µM))	expression of Bak (MDA-MB-231 cells [3])	caspase 7 activation (MDA-MB-231 cells [3]; 10 µM)	cleavage of the initiator caspase, caspase 9 (MDA-MB-231 cells [3]; 10 µM)	expression of cytochrome c (MDA-MB-231 cells [3]; 10 µM)
O=C(COc1cc(O)c2c(=O)cc(-c3ccccc3)oc2c1)N/N=C/c1ccc(O)cc1O [Compound 4g, (E,Z)-N’-(2,4-Dihydroxybenzylidene)-2-((5-hydroxy-4-oxo-2-phenyl-4H-chromen-7-yl)oxy)acetohydrazide]	7.64 ± 0.11	8 ± 1.33	5.98 ± 2.25	significant cleavage	significant increase	no significant change	activated caspase 7	increase	–	–	–
O=C(COc1cc(O)c2c(=O)cc(-c3ccccc3)oc2c1)N/N=C/c1ccc(O)c(O)c1O [Compound 4i, (E,Z)-2-((5-Hydroxy-4-oxo-2-phenyl-4H-chromen-7-yl)oxy)-N’-(2,3,4-trihydroxybenzylidene)acetohydrazide]	25.4 ± 7.53	> 100	9.4 ± 1.45	–	–	no significant change	–	increase	activated caspase 7	significant cleavage	significant increase

From article PMC7412250, “Novel Chrysin-De-Allyl PAC-1 Hybrid Analogues as Anticancer Compounds: Design, Synthesis, and Biological Evaluation” (Molecules, 2020)
